Reference: patent US7192606B2, “Drugs for treating viral infections” (priority 2004, dated 2007)
Converted amounts (≈) assume the structure as drawn. Like-named read-outs stand apart in the source and are kept apart here.

Columns and labels:
[1] = Neutral Red Uptake Assay (toxicity); conditions: human, stationary HFF cells
cowpox virus [2] = assay: microbe, parasite or virus in culture; format: cell-based; conditions: HFF
cowpox virus [3] = conditions: cited from earlier work
stationary HFF cells = assay: Neutral Red Uptake Assay (toxicity); conditions: Neutral Red Uptake
[4] = Parallel Artificial Membrane Permeability Assay (PAMPA)-MS; conditions: hexadecane membrane layer, 4 hr, 50 microM in PBS, LC-MS
cowpox virus [5] = format: cell-based
Caco-2 cells = assay: Caco-2 cell permeability assay; conditions: for A side % Remaining at 2 hrs: Caco-2, A side; for B side % Remaining at 2 hrs: Caco-2, B side; for A-B: Caco-2, apical to basolateral; for A-B / B-A: 25 microM, 2 hours, 37° C.; for B-A: Caco-2, basolateral to apical
[6] = tested on: variola virus (smallpox) isolates; format: cell-based
[7] = Caco-2 cell permeability assay; conditions: human, Caco-2
cowpox virus [8] = format: cell-based; remark: listed apart in the source
cowpox virus [9] = tested on: cowpox virus; parameters: species or system BALB/c mice; conditions: mouse, in vivo
vaccinia virus = format: cell-based

Nc1ccn(C[C@@H](CO)OCP(=O)(O)O)c(=O)n1 [CDV, reference compound]
CC50 [1]: > 100 µg/mL | EC90 (cowpox virus [2]): 18.7 µg/mL (≈ 67 µM) | active concentration in these cells (cowpox virus [3]): about 12.0 microgram/mL

O=S(=O)(NC12CC3CC(CC(C3)C1)C2)NS(=O)(=O)NC12CC3CC(CC(C3)C1)C2 [Example 1, N,N^1-Bis(tricyclo[3.3.1.1^3,7]dec-1-yl)imidodisulfamide]
CC50 (stationary HFF cells): 78.9 microgram/mL | CC50 (uninfected cells): 43.0 microgram/mL | permeability [4]: 0.43 ×10⁻⁶ cm/s | concentration up to which cell monolayers were healthy (monkey (Vero) cells): ≥ 30 microgram/mL | plaques at 1.0 microgram/mL (cowpox virus [5]): tiny relative to the untreated ones | plaques at 3.0 microgram/mL (cowpox virus [5]): nearly completely eliminated | EC50 (cowpox virus [5]; 3 days): 2.0 microgram/mL | A side % Remaining at 2 hrs (Caco-2 cells): 85.05% | B side % Remaining at 2 hrs (Caco-2 cells): 105.39% | Ratio (Caco-2 cells; Caco-2, B-A / A-B): 2.1 | A-B (Caco-2 cells): 9.07 | B-A (Caco-2 cells): 18.85 | average EC50 [6]: 0.10 microgram/mL

CC(C)NCC(O)COc1cccc2ccccc12 (stereo not drawn) [Propranolol, reference compound]
efflux ratio at 2 h, 25 microM [7]: 1.9 | A side % Remaining at 2 hrs (Caco-2 cells): 68.60% | B side % Remaining at 2 hrs (Caco-2 cells): 88.38% | A-B (Caco-2 cells): 39.03 | B-A (Caco-2 cells): 72.42

Sodium N,N^1-(Tricyclo[3.3.1.1^3,7]dec-1-yl)imidodisulfamide [Example 11]
CC50 (stationary HFF cells): 87.6 microgram/mL | EC50 (cowpox virus [8]): EC50: 0.50 microgram/mL; | EC90 (cowpox virus [8]): EC90: 2.10 microgram/mL; | Lung titer on Day 3 (cowpox virus [9]): 6.6±1.3 | EC50 (vaccinia virus): EC50: 0.04 microgram/mL; | EC90 (vaccinia virus): EC90: 0.11 microgram/mL;
